Where two headings read alike, the source gives them in different places.
How the values were obtained:
[1] = test system: Key Broadleaf Weed and Crop Species; assay: Post-emergent Test II herbicidal activity (Table 15); type: in vivo; conditions: post-emergence, 336 h, 14 d; for pest or weed control at 35 g/ha: 35 g ai/ha; for pest or weed control at 70 g/ha: 70 g ai/ha; for pest or weed control at 140 g/ha: 140 g ai/ha
Summary of the method: (§1)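 Plants grown in greenhouse (~15 h photoperiod, 23-29 °C day, 22-28 °C night) to first or second true leaf stage, then sprayed post-emergence at 187 L/ha with a high rate and 1/2×, 1/4×, 1/8× and 1/16× dilutions. Injury scored visually after 14 d, 0-100% versus untreated plants.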

[2] = test system: undesirable vegetation; assay: Herbicidal activity, comparison X is CF with X is CH; type: in vivo; conditions: 1.08 and 1.09 vs 1.21 and 1.22; 1.15 and 1.16 vs 1.23 and 1.24; A is A15
[3] = test system: Key Grass and Sedge Weeds as well as Grass Crops; assay: Post-emergent Test II herbicidal activity (Table 16); type: in vivo; conditions: post-emergence, 336 h, 14 d; for pest or weed control at 35 g/ha: 35 g ai/ha; for pest or weed control at 70 g/ha: 70 g ai/ha; for pest or weed control at 140 g/ha: 140 g ai/ha
Summary of the method: as §1

[4] = Abutilon theophrasti, velvetleaf (Abutilon theophrasti), read-out: Visual Growth Reduction (%) 14 Days After Application, ABUTH
[5] = Amaranthus retroflexus, redroot pigweed (Amaranthus retroflexus), read-out: Visual Growth Reduction (%) 14 Days After Application, AMARE
[6] = Brassica napus, oilseed rape, canola (Brassica napus), read-out: Visual Growth Reduction (%) 14 Days After Application, BRSNN
[7] = Chenopodium album, lambsquarters (Chenopodium album), read-out: Visual Growth Reduction (%) 14 Days After Application, CHEAL
[8] = Euphorbia heterophylla, wild poinsettia (Euphorbia heterophylla), read-out: Visual Growth Reduction (%) 14 Days After Application, EPHHL
[9] = Helianthus annuus, sunflower (Helianthus annuus), read-out: Visual Growth Reduction (%) 14 Days After Application, HELAN
[10] = Cyperus esculentus, yellow nutsedge (Cyperus esculentus), read-out: Visual Growth Reduction (%) 14 Days After Application, CYPES
[11] = Echinochloa crus-galli, barnyardgrass (Echinochloa crus-galli), read-out: Visual Growth Reduction (%) 14 Days After Application, ECHCG
[12] = Oryza sativa, rice (Oryza sativa), read-out: Visual Growth Reduction (%) 14 Days After Application, ORYSA
[13] = Setaria faberi, giant foxtail (Setaria faberi), read-out: Visual Growth Reduction (%) 14 Days After Application, SETFA
[14] = Triticum aestivum, wheat, spring (Triticum aestivum), read-out: Visual Growth Reduction (%) 14 Days After Application, TRZAS
[15] = Zea mays, maize, corn (Zea mays), read-out: Visual Growth Reduction (%) 14 Days After Application, ZEAMX

Nc1c(F)c(-c2ccc3cc[nH]c3c2)nc(C(=O)O)c1Cl [Compound 1.09]
melting point: 138 to 140 °C | pest or weed control at 35 g/ha [1, 4]: 95 to 100% | pest or weed control at 70 g/ha [1, 4]: 95 to 100% | pest or weed control at 140 g/ha [1, 4]: 95 to 100% | pest or weed control at 35 g/ha [1, 5]: 95 to 100% | pest or weed control at 70 g/ha [1, 5]: 95 to 100% | pest or weed control at 140 g/ha [1, 5]: 95 to 100% | pest or weed control at 35 g/ha [1, 6]: 95 to 100% | pest or weed control at 70 g/ha [1, 6]: 95 to 100% | pest or weed control at 140 g/ha [1, 6]: 95 to 100% | pest or weed control at 35 g/ha [1, 7]: 95 to 100% | pest or weed control at 70 g/ha [1, 7]: 95 to 100% | pest or weed control at 140 g/ha [1, 7]: 95 to 100% | pest or weed control at 35 g/ha [1, 8]: 85 to 94% | pest or weed control at 70 g/ha [1, 8]: 95 to 100% | pest or weed control at 140 g/ha [1, 8]: 95 to 100% | pest or weed control at 35 g/ha [1, 9]: 95 to 100% | pest or weed control at 70 g/ha [1, 9]: 95 to 100% | pest or weed control at 140 g/ha [1, 9]: 95 to 100% | activity when X is CF compared with X is CH [2]: significant increase in activity | pest or weed control at 35 g/ha [3, 10]: 30 to 44% | pest or weed control at 70 g/ha [3, 10]: 75 to 84% | pest or weed control at 140 g/ha [3, 10]: 85 to 94% | pest or weed control at 35 g/ha [3, 11]: 95 to 100% | pest or weed control at 70 g/ha [3, 11]: 95 to 100% | pest or weed control at 140 g/ha [3, 11]: 95 to 100% | pest or weed control at 35 g/ha [3, 12]: 0 to 29% | pest or weed control at 70 g/ha [3, 12]: 0 to 29% | pest or weed control at 140 g/ha [3, 12]: 0 to 29% | pest or weed control at 35 g/ha [3, 13]: 85 to 94% | pest or weed control at 70 g/ha [3, 13]: 85 to 94% | pest or weed control at 140 g/ha [3, 13]: 85 to 94% | pest or weed control at 35 g/ha [3, 14]: 0 to 29% | pest or weed control at 70 g/ha [3, 14]: 0 to 29% | pest or weed control at 140 g/ha [3, 14]: 0 to 29% | pest or weed control at 35 g/ha [3, 15]: 60 to 74% | pest or weed control at 70 g/ha [3, 15]: 75 to 84% | pest or weed control at 140 g/ha [3, 15]: 75 to 84%

Reference: patent US20170050957A1, “4-AMINO-6-(HETEROCYCLIC)PICOLINATES AND 6-AMINO-2-(HETEROCYCLIC)PYRIMIDINE-4-CARBOXYLATES AND THEIR USE AS HERBICIDES” (Dow AgroSciences LLC, priority 2013, published 2017)
